Measured values published in patent US8431706B2, “1,2,3,4-tetrahydroqinoline derivative useful for the treatment of diabetes” (Eli Lilly and Company, priority 2011, dated 2013).

Biological target: T1, Gal4 PPARδ (Homo sapiens, UniProt Q03181)
T1 construct: expressed in transfected cells; host or cells: CV1 (African green monkey kidney)
T1 sequence (Q03181 211-439 limits assumed): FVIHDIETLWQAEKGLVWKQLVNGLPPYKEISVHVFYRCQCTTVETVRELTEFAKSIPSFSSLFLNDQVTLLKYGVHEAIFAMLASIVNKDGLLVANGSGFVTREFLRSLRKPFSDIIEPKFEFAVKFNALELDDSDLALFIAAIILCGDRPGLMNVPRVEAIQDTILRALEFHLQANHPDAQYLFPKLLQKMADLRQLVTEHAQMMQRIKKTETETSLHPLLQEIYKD
Test: Gal4 PPARδ reporter functional assay in CV1 cells
Assay type: cell-based
Conditions: examined up to 10 μM; luciferase reporter; 24 hours
Source text: Gal4 PPARα, Gal4 PPARδ, and PPARγ reporter functional assays are also used to monitor the selectivity of the exemplified compound. CV1 cells, which are derived from the renal tissue of an African green monkey, are transfected with various receptor and reporter plasmids using Fugene. For the Gal4 PPARα and PPARδ assays, a reporter plasmid containing five tandem copies of the yeast transcription protein Gal4 response element, cloned upstream of a firefly luciferase gene driven by the major late promoter of adenovirus, is transfected together with a Simian Virus 40 (SV40) driven plasmid constitutively expressing a hybrid protein containing the Gal4 DNA binding domain (DBD), and either the PPARα or PPARδ ligand binding. For the PPARγ assay, plasmids encoding PPARγ and RXRα, both driven by a cytomegalovirus (CMV) promoter are transfected together with a plasmid containing luciferase reporter cDNA driven by the TK promoter and a receptor response element (2×PPRE). Cells are transfected in T225 cm^2 cell culture flasks in DMEM media with 5% charcoal-stripped FBS. […] After 24 hours incubation with the compound, cells are lysed and luciferase activity is determined as a measure of receptor activation by luminescence. […] The maximum percent stimulation is determined versus maximum stimulation obtained with 10 μM of an appropriate PPAR agonist reference compound. […]

**Q.** For `CC#C[C@@H](CC(=O)O)c1ccc(OCc2ccc(CN3CCCc4cccc(OC)c43)s2)cc1` [Example 1, (3S)-3-[4-[[5-[(8-Methoxy-3,4-dihydro-2H-quinolin-1-yl)methyl]-2-thienyl]methoxy]phenyl]hex-4-ynoic acid], which “functional activation of PPARδ” value is on record?
**A.** No functional activation
